The target in experiment [1] is Sigma non-opioid intracellular receptor 1 (Homo sapiens, UniProt Q99720). Briefly: PDSP Secondary Binding target: SIGMAR1 - Compounds are tested at 10 uM concentration, plate are incubated at room temperature in the dark for 90 minutes. Reaction are stopped by vacuum filtration onto 0.3% polyethyleneimine soaked filter mats using Filtermate harvester. Scintillation cocktail is then melted onto microwave-dried filters on a hot plate and the radio activity is counted in Microbia counter.
Sequence of Sigma non-opioid intracellular receptor 1 (Q99720 whole entry): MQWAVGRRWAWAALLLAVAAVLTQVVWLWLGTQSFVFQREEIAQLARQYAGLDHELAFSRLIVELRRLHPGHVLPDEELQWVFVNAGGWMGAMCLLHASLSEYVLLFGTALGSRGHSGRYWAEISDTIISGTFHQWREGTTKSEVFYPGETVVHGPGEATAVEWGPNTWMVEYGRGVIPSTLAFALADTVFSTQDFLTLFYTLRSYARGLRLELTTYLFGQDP

Experiment [2] concerns the target 5-hydroxytryptamine receptor 2A (Homo sapiens, UniProt P28223). Briefly: PDSP Secondary Binding target: HTR2A - Compounds are tested at 10 uM concentration, plate are incubated at room temperature in the dark for 90 minutes. Reaction are stopped by vacuum filtration onto 0.3% polyethyleneimine soaked filter mats using Filtermate harvester. Scintillation cocktail is then melted onto microwave-dried filters on a hot plate and the radio activity is counted in Microbia counter.

Experiment [3] concerns the target Beta-2 adrenergic receptor (Homo sapiens, UniProt P07550). Kind of experiment: PDSP Secondary Binding target: ADRB2 - Compounds are tested at 10 uM concentration, plate are incubated at room temperature in the dark for 90 minutes. Reaction are stopped by vacuum filtration onto 0.3% polyethyleneimine soaked filter mats using Filtermate harvester. Scintillation cocktail is then melted onto microwave-dried filters on a hot plate and the radio activity is counted in Microbia counter.

In experiment [4] the target is T1, Muscarinic acetylcholine receptor M5 (Homo sapiens, UniProt P08912).
T1 sequence (P08912 whole entry): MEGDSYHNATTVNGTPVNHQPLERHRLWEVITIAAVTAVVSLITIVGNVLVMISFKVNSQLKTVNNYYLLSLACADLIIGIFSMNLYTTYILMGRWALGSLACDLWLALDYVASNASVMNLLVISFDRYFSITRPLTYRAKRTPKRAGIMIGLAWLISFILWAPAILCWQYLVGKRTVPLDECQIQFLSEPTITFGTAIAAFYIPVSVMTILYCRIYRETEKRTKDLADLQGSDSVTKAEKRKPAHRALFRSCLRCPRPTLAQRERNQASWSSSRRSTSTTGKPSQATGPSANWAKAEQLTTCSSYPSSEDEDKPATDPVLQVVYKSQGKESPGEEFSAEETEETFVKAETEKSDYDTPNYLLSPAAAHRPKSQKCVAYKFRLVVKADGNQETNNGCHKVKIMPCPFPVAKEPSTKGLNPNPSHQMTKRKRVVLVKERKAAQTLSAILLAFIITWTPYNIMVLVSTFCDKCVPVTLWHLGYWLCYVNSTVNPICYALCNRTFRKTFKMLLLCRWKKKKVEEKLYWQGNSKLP
Kind of experiment: PDSP Secondary Binding target: CHRM5 - Compounds are tested at 10 uM concentration, plate are incubated at room temperature in the dark for 90 minutes. Reaction are stopped by vacuum filtration onto 0.3% polyethyleneimine soaked filter mats using Filtermate harvester. Scintillation cocktail is then melted onto microwave-dried filters on a hot plate and the radio activity is counted in Microbia counter.

In a further experiment the target is D(1B) dopamine receptor (Homo sapiens, UniProt P21918). Briefly: PDSP Secondary Binding target: DRD5 - Compounds are tested at 10 uM concentration, plate are incubated at room temperature in the dark for 90 minutes. Reaction are stopped by vacuum filtration onto 0.3% polyethyleneimine soaked filter mats using Filtermate harvester. Scintillation cocktail is then melted onto microwave-dried filters on a hot plate and the radio activity is counted in Microbia counter.

Experiment [5] addresses Sigma intracellular receptor 2 (Homo sapiens, UniProt Q5BJF2). Briefly: PDSP Secondary Binding target: TMEM97 - Compounds are tested at 10 uM concentration, plate are incubated at room temperature in the dark for 90 minutes. Reaction are stopped by vacuum filtration onto 0.3% polyethyleneimine soaked filter mats using Filtermate harvester. Scintillation cocktail is then melted onto microwave-dried filters on a hot plate and the radio activity is counted in Microbia counter.

The target of another experiment is D(1A) dopamine receptor (Homo sapiens, UniProt P21728). Kind of experiment: PDSP Secondary Binding target: DRD1 - Compounds are tested at 10 uM concentration, plate are incubated at room temperature in the dark for 90 minutes. Reaction are stopped by vacuum filtration onto 0.3% polyethyleneimine soaked filter mats using Filtermate harvester. Scintillation cocktail is then melted onto microwave-dried filters on a hot plate and the radio activity is counted in Microbia counter.
Sequence of D(1A) dopamine receptor (P21728 whole entry): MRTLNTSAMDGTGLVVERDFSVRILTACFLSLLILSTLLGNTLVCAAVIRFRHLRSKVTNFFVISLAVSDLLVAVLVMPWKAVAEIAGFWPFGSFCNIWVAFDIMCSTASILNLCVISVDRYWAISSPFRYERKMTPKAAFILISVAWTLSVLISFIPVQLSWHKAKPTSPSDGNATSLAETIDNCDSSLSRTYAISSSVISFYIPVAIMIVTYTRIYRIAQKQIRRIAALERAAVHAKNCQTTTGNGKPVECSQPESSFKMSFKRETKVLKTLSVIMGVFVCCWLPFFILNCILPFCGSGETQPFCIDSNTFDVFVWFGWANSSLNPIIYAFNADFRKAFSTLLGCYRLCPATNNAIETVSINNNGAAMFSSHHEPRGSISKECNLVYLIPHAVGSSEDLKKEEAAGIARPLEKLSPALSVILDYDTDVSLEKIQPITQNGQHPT

Experiment [6] addresses T2, Muscarinic acetylcholine receptor M1 (Homo sapiens, UniProt P11229).
T2 sequence (P11229 whole entry): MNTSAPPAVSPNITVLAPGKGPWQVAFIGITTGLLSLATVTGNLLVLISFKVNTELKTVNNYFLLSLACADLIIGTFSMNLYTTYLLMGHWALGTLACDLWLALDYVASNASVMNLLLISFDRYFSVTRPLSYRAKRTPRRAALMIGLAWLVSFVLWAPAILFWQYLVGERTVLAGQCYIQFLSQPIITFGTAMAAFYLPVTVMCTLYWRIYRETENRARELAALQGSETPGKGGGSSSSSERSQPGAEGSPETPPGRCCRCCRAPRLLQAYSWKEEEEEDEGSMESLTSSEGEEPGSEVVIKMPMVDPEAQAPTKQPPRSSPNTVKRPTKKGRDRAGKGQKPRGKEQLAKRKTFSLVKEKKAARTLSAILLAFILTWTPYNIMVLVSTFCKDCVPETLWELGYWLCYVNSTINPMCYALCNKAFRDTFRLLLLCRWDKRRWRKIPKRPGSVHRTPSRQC
Briefly: PDSP Secondary Binding target: CHRM1 - Compounds are tested at 10 uM concentration, plate are incubated at room temperature in the dark for 90 minutes. Reaction are stopped by vacuum filtration onto 0.3% polyethyleneimine soaked filter mats using Filtermate harvester. Scintillation cocktail is then melted onto microwave-dried filters on a hot plate and the radio activity is counted in Microbia counter.

Experiment [7] deals with Muscarinic acetylcholine receptor M3 (Homo sapiens, UniProt P20309). Briefly: PDSP Secondary Binding target: CHRM3 - Compounds are tested at 10 uM concentration, plate are incubated at room temperature in the dark for 90 minutes. Reaction are stopped by vacuum filtration onto 0.3% polyethyleneimine soaked filter mats using Filtermate harvester. Scintillation cocktail is then melted onto microwave-dried filters on a hot plate and the radio activity is counted in Microbia counter.
Sequence of Muscarinic acetylcholine receptor M3 (P20309 whole entry): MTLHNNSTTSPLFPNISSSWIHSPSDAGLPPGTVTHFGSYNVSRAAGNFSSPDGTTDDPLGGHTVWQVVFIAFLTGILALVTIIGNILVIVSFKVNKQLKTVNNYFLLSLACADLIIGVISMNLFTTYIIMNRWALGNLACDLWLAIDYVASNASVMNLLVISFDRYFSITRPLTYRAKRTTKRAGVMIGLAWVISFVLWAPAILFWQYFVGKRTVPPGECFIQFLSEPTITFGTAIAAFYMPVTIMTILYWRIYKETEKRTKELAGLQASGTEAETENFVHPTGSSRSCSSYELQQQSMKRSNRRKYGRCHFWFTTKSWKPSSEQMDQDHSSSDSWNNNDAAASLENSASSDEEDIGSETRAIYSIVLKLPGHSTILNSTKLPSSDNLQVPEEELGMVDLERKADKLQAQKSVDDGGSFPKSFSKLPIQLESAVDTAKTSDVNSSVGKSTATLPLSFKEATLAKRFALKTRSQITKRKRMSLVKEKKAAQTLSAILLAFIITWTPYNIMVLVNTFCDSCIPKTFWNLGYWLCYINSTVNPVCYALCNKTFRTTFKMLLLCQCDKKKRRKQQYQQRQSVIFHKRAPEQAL

The target of experiment [8] is T3, Muscarinic acetylcholine receptor M4 (Homo sapiens, UniProt P08173).
T3 sequence (P08173 whole entry): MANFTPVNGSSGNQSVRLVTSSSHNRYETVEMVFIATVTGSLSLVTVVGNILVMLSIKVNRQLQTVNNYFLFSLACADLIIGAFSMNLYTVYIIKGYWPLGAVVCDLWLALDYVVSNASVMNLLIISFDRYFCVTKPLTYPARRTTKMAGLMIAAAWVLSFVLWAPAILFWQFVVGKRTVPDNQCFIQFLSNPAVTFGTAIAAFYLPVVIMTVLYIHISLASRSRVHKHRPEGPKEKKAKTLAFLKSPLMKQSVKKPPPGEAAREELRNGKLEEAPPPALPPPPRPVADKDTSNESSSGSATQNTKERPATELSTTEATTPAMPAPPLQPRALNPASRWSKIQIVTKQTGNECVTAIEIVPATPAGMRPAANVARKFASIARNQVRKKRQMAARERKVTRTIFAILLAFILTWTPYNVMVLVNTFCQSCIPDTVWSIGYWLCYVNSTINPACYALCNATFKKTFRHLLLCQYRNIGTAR
Kind of experiment: PDSP Secondary Binding target: CHRM4 - Compounds are tested at 10 uM concentration, plate are incubated at room temperature in the dark for 90 minutes. Reaction are stopped by vacuum filtration onto 0.3% polyethyleneimine soaked filter mats using Filtermate harvester. Scintillation cocktail is then melted onto microwave-dried filters on a hot plate and the radio activity is counted in Microbia counter.

Another experiment deals with D(3) dopamine receptor (Homo sapiens, UniProt P35462). Kind of experiment: PDSP Secondary Binding target: DRD3 - Compounds are tested at 10 uM concentration, plate are incubated at room temperature in the dark for 90 minutes. Reaction are stopped by vacuum filtration onto 0.3% polyethyleneimine soaked filter mats using Filtermate harvester. Scintillation cocktail is then melted onto microwave-dried filters on a hot plate and the radio activity is counted in Microbia counter.
Sequence of D(3) dopamine receptor (P35462 whole entry): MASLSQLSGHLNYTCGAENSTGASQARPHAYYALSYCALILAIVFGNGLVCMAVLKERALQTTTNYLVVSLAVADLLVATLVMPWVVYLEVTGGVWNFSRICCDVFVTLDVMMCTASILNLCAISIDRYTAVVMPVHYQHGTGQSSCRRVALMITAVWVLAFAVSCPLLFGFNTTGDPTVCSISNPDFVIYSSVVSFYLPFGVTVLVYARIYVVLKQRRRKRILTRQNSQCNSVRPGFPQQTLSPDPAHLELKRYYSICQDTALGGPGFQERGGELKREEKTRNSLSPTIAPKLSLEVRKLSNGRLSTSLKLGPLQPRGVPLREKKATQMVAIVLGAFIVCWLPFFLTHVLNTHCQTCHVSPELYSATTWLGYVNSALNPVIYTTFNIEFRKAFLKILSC

Experiment [9] concerns the target Kappa-type opioid receptor (Homo sapiens, UniProt P41145). Briefly: PDSP Secondary Binding target: OPRK1 - Compounds are tested at 10 uM concentration, plate are incubated at room temperature in the dark for 90 minutes. Reaction are stopped by vacuum filtration onto 0.3% polyethyleneimine soaked filter mats using Filtermate harvester. Scintillation cocktail is then melted onto microwave-dried filters on a hot plate and the radio activity is counted in Microbia counter.

Experiment [10] concerns the target 5-hydroxytryptamine receptor 2B (Homo sapiens, UniProt P41595). Kind of experiment: PDSP Secondary Binding target: HTR2B - Compounds are tested at 10 uM concentration, plate are incubated at room temperature in the dark for 90 minutes. Reaction are stopped by vacuum filtration onto 0.3% polyethyleneimine soaked filter mats using Filtermate harvester. Scintillation cocktail is then melted onto microwave-dried filters on a hot plate and the radio activity is counted in Microbia counter.

A further experiment deals with Translocator protein (Homo sapiens, UniProt P30536). Briefly: PDSP Secondary Binding target: TSPO - Compounds are tested at 10 uM concentration, plate are incubated at room temperature in the dark for 90 minutes. Reaction are stopped by vacuum filtration onto 0.3% polyethyleneimine soaked filter mats using Filtermate harvester. Scintillation cocktail is then melted onto microwave-dried filters on a hot plate and the radio activity is counted in Microbia counter.
Sequence of Translocator protein (P30536 whole entry): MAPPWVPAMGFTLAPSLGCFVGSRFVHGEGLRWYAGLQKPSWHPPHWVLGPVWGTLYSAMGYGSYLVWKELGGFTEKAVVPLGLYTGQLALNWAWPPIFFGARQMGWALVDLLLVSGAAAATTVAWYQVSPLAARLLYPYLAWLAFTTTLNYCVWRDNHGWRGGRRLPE

Experiment [11] deals with T4, Muscarinic acetylcholine receptor M2 (Homo sapiens, UniProt P08172).
T4 sequence (P08172 whole entry): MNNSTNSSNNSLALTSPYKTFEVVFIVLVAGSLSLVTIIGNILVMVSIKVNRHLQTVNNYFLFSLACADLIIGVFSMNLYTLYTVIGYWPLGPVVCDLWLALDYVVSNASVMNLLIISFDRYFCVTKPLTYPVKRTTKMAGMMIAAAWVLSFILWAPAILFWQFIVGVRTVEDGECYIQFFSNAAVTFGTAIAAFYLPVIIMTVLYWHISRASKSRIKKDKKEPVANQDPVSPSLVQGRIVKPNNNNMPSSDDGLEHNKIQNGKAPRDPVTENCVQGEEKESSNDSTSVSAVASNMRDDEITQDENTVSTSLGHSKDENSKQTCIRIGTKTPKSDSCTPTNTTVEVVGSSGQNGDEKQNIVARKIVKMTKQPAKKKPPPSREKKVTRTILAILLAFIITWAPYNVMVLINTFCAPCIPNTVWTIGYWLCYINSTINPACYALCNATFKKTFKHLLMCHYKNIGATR
Kind of experiment: PDSP Secondary Binding target: CHRM2 - Compounds are tested at 10 uM concentration, plate are incubated at room temperature in the dark for 90 minutes. Reaction are stopped by vacuum filtration onto 0.3% polyethyleneimine soaked filter mats using Filtermate harvester. Scintillation cocktail is then melted onto microwave-dried filters on a hot plate and the radio activity is counted in Microbia counter.

Experiment [12] has as its target 5-hydroxytryptamine receptor 6 (Homo sapiens, UniProt P50406). Kind of experiment: PDSP Secondary Binding target: HTR6 - Compounds are tested at 10 uM concentration, plate are incubated at room temperature in the dark for 90 minutes. Reaction are stopped by vacuum filtration onto 0.3% polyethyleneimine soaked filter mats using Filtermate harvester. Scintillation cocktail is then melted onto microwave-dried filters on a hot plate and the radio activity is counted in Microbia counter.

A further experiment has as its target D(2) dopamine receptor (Homo sapiens, UniProt P14416). Briefly: PDSP Secondary Binding target: DRD2 - Compounds are tested at 10 uM concentration, plate are incubated at room temperature in the dark for 90 minutes. Reaction are stopped by vacuum filtration onto 0.3% polyethyleneimine soaked filter mats using Filtermate harvester. Scintillation cocktail is then melted onto microwave-dried filters on a hot plate and the radio activity is counted in Microbia counter.

The results in this text go back to ChEMBL document CHEMBL5442175, “EUbOPEN Chemogenomics Library - PDSP Secondary Binding” (2024).

Each structure is given as a SMILES string. pKi: −log10 of the molar value.

Sequence of 5-hydroxytryptamine receptor 2B (P41595 whole entry): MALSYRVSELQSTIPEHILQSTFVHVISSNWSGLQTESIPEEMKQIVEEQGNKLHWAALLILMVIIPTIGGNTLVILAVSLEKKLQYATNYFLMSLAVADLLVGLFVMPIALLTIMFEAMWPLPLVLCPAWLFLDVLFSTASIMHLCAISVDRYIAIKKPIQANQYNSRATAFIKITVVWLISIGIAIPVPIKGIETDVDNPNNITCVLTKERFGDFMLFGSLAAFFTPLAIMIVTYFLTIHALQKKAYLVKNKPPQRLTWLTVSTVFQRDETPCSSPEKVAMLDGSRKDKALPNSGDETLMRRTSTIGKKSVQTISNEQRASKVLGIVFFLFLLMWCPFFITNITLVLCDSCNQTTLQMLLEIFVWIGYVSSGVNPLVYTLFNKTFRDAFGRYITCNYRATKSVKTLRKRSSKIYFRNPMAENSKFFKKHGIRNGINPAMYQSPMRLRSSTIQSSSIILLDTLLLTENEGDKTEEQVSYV
Sequence of 5-hydroxytryptamine receptor 2A (P28223 whole entry): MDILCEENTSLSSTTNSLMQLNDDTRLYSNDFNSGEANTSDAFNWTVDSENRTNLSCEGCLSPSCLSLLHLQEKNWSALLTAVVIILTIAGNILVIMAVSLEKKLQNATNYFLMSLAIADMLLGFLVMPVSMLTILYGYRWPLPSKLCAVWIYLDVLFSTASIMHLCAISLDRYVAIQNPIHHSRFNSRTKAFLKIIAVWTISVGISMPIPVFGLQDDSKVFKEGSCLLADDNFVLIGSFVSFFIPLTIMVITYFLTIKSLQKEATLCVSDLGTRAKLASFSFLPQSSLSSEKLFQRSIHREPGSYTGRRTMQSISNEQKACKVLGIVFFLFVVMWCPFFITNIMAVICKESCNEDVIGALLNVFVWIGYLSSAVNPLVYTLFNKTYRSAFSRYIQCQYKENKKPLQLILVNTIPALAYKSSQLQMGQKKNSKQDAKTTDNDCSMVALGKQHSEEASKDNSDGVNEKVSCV
Sequence of Kappa-type opioid receptor (P41145 whole entry): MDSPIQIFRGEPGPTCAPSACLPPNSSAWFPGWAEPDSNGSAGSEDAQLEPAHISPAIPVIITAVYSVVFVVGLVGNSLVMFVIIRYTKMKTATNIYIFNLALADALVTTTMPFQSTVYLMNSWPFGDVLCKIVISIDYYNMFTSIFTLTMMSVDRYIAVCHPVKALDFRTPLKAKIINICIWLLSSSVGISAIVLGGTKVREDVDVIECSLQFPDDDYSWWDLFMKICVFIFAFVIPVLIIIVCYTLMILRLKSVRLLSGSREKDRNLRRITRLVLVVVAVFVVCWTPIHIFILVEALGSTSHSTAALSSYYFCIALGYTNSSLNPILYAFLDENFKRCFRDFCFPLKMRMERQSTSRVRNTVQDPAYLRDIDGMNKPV
Sequence of Beta-2 adrenergic receptor (P07550 whole entry): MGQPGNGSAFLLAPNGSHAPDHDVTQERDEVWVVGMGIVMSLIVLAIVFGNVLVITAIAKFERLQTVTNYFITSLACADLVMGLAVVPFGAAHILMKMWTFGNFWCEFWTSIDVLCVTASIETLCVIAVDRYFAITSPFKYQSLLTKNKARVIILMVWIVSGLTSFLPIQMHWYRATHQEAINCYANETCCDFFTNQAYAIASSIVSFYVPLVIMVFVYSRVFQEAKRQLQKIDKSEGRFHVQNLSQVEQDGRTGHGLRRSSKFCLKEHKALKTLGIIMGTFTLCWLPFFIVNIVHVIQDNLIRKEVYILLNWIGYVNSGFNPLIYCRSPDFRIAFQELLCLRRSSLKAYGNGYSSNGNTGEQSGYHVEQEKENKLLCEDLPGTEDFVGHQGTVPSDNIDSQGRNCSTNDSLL
Sequence of 5-hydroxytryptamine receptor 6 (P50406 whole entry): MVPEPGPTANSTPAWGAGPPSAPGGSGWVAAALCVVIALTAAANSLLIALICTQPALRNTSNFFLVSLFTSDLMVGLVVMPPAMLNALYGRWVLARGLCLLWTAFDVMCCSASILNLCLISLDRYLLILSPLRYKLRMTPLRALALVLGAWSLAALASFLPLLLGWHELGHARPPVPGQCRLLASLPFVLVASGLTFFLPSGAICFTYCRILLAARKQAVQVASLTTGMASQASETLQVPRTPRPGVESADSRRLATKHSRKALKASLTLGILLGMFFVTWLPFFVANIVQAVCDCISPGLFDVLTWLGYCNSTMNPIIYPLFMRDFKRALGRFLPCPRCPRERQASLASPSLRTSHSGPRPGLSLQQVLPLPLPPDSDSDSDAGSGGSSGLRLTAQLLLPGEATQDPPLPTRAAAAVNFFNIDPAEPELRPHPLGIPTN
Sequence of D(2) dopamine receptor (P14416 whole entry): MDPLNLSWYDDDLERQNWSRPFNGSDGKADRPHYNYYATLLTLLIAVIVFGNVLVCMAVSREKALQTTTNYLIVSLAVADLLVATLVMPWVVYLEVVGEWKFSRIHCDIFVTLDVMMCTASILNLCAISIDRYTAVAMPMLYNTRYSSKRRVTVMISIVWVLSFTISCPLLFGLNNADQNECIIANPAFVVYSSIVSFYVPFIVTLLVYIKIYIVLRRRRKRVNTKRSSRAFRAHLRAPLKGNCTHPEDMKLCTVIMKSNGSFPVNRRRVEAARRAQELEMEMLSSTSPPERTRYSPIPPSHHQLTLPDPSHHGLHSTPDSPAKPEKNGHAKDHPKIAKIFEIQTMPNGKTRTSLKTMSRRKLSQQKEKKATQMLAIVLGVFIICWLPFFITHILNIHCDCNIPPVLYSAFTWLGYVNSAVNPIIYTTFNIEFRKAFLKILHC
Sequence of Sigma intracellular receptor 2 (Q5BJF2 whole entry): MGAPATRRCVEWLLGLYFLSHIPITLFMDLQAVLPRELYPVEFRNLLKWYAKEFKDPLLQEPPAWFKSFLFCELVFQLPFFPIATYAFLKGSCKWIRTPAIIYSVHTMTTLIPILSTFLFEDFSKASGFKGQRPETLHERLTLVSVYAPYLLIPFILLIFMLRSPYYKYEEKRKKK

Usually pKi stands for −log10 of the Ki, conventionally taken in molar units. Low readings indicate a large Ki, high ones a small Ki. With `CC[C@@H]1CN2C(=O)N(C)c3nc(-c4ccccc4)[nH]c3C2=N1`, the values for the negative logarithm of the Ki (pKi) in experiment [1], in [2] and in experiment [3] were 6.18, 5.01 and under 5.00, respectively.
As to `CCN(CC)CCCCC1CCN(CC(=O)N2c3ccccc3C(=O)Nc3cccnc32)CC1`, the pKi in experiment [4] is 6.02; at D(1B) dopamine receptor, 5.73; in experiment [5], 5.88; at D(1A) dopamine receptor it was 6.13; in experiment [6], 6.59; in experiment [7] it was 6.82. Besides, in [8], the pKi was 7.87.
Turning to `CC(C)(C)NC[C@H](O)COc1nsnc1N1CCOCC1` [TIMOLOL], the pKi was 6.41 in experiment [1] and 5.28 at D(1A) dopamine receptor.
Consider `O=C(O)C1CN(Cc2ccc(-c3nc4cc(Cc5ccccc5F)ccc4s3)c(F)c2)C1`, for which the pKi on D(3) dopamine receptor was 5.85; in experiment [3], under 5.00.
Regarding `Cc1nc(C(=O)N2CCC[C@H]2Cc2nnc(-c3ccccc3)o2)c(-c2ccccc2F)s1`, the pKi in experiment [9] was 6.15; in experiment [10] it was 5.52; on Translocator protein, 6.10; in [11], under 5.00.
Consider `Cc1cc(C(=O)N2Cc3cnn(C)c3Nc3ccccc32)ccc1CNC(=O)N1CCC[C@H]1C(=S)N1CCCN(C)CC1`, for which the pKi in experiment [4] is 6.33; in [9] it was 5.69; at D(3) dopamine receptor, 6.04; in experiment [11], 5.46; in experiment [7], 6.15; in experiment [8] it was 6.60.
Consider `Cc1cc(NC(=O)Nc2ccc(N(C)C)cc2)c2cc(F)cc(F)c2n1`, for which the pKi in experiment [1] is 5.27; in [10], 5.77; in experiment [12], under 5.00; in experiment [11], under 5.00; at D(2) dopamine receptor, 5.01.
On to `CC(C)NC(=O)c1ccc(C#Cc2ccncc2)cn1`, for which the pKi in experiment [1] is 5.96; in experiment [11] it was 5.17.
Take `CCOC(=O)c1cc(C#N)c(N2CCC(C(=O)NS(=O)(=O)Cc3ccccc3)CC2)nc1C`: the results for the pKi (at D(3) dopamine receptor; in experiment [11]) were 5.55 and 5.04, respectively.
As to `Cc1cccc(NC(=O)N[C@@H]2N=C(c3ccccc3)c3ccccc3N(C)C2=O)c1` [L-365260], the pKi is 5.21 in [10], 5.52 on D(1A) dopamine receptor and 5.67 in experiment [2].
